Consider 89 molecules from a melting point compilation (Tetko et al.; mined from patent text by program, amines drawn as free bases though some values may be those of a salt).

As to `COc1ccc(S(N)(=O)=O)cc1C(C)O` (centres undefined), the melting point (in general, the temperature of the solid-liquid transition) was in the range of 165 to 166 °C.
Molecule `CCOc1ccc(C(=O)N2CCc3cc(S(=O)(=O)n4cc(-c5ccccc5)[nH]c4=O)ccc32)cc1` had a melting point of 249 to 253 °C.
In the case of `CCOC(=O)C(=O)c1ccccc1Nc1c(Cl)cccc1Cl` it was 84 to 85.5 °C; in that of `CCCn1nc(-c2ccc(OC(=O)CC)cc2)c2cccc(Cl)c21`, 66 to 67 °C.
Regarding `CCOC(=O)c1nn(-c2ccc(C)cc2)nc1-c1ccccc1`, the melting point was 74 to 75 °C.
In turn, `COc1ccc2c(Cc3c(Cl)cncc3Cl)nnc(NN)c2c1` had a melting point of 297 to 299 °C.
The value for `CCOc1c(Br)ccc(C(=O)CC(=O)C2CC2)c1N(C)S(C)(=O)=O` was 120 to 122 °C; that for `CC12CCC(=O)C=C1CCC1C2=CCC2(C)C(=C(Cl)C(Cl)S(=O)c3ccccc3)CCC12` (centres undefined) was 133 to 134 °C; that for `COC(=O)C1=C(C)NC(C(C)=O)=C(C(=O)OC)C1c1ccccc1Cl` (centres undefined) was 161 to 162 °C.
On to `CC(C)(C)OC(=O)N1CCC(C(=O)Nc2ccccc2Oc2ccc(Cl)cc2Cl)CC1`, for which the melting point was 120 to 121 °C.
The value for `O=C(Nc1cc([N+](=O)[O-])cc([N+](=O)[O-])c1)C1CC1` was 147 to 149 °C.
`CCCn1nc(C2CC2)c(C(=O)OCC)c1Cc1ccc(-c2ccccc2S(N)(=O)=O)cc1` had a melting point of 70 to 77 °C.
The value for `Cc1c(NC(=O)CC(C)(C)C)c(C)c2c(c1-c1ccc[nH]1)OCC2c1ccc(C(C)C)cc1` (centres undefined) was 188 to 190 °C; that for `CCCCc1nc2ccn(Cc3ccccc3)c(=O)c2n1Cc1ccc(-c2ccccc2-c2nnn[nH]2)cc1` was 130 °C.
`COc1ccc(OC)c2c1[C@H](C=O)c1ccccc1[C@@H]2C=O`: the melting point lay within 129 to 132 °C.
The value for `Cc1c(C)n(CCCF)c2c(OCc3ccccc3)nncc12` was 100 to 101 °C.
`Clc1nc(-c2ccncc2)cs1` yielded a melting point of 124 to 125 °C.
The value for `COc1cccc(CNC(=O)c2nc3onc(C)c3c(=O)[nH]2)c1` was 236 to 237 °C; that for `COc1ccc(-c2cc(=O)n(CC3CC3)nc2-c2ccc(OC)c(F)c2)cc1` was 132 to 133 °C; that for `CCCCC(Cc1ccc(OCCNC(=O)c2ccc(-c3ccccc3)cc2)cc1)C(=O)O` (centres undefined) was 130 to 131 °C.
The molecule `CC(=Cc1ccc(C(=O)O)cc1)c1ccc2c(c1)N(C)CCC2(C)C` had a melting point of 194 to 196 °C.
Turning to `O=CNCC1CN(c2c(F)cc3c(=O)c(C(=O)O)cn(-c4ccc(F)cc4F)c3c2F)CCO1` (centres undefined), the melting point was 230 to 233 °C.
The value for `CCC1C(c2ccc(OC(Cl)C(=O)O)cc2Cl)=CC(=O)CC1C` (centres undefined) was 183 °C.
In turn, `C[C@H](NC(=O)c1c(C(=O)O)cccc1[N+](=O)[O-])C(=O)N1CCC[C@H]1C(=O)O` came in with a melting point of 134 to 137 °C.
The value for `N=C(N)NCCc1ccc(OCCC2Oc3ccccc3N(Cc3cccc(Cl)c3)C2=O)cc1` (centres undefined) was 90 to 101 °C; that for `O=C1C=C(COCc2ccccc2)N=CC1OCc1ccccc1` (centres undefined) was 103 to 131 °C; that for `Cc1c(F)c(F)c(C(=O)NC2CCCCCC2)c(F)c1F` was 164 to 165 °C.
The molecule `CN(C)Cc1cc(C(N)=O)ccc1OCCN(C)Cc1ccc(Cl)cc1` registered a melting point of 123 to 124 °C.
The value for `COC(=S)CCc1cc(C(C)(C)C)cc(C(C)(C)C)c1O` was 55 to 55.5 °C; that for `CC(=O)c1ccc2c(c1)C(=O)C=C(C)C2=O` was 126 °C; that for `COc1ccc(C(O)Cc2ccncc2)cc1OC1CCCC1` (centres undefined) was 97 to 101 °C.
In turn, `O=C(O)COc1c(Cl)cc2c(-c3ccccc3F)noc2c1Cl` yielded a melting point of 160 to 170 °C.
Regarding `O=C1Nc2cc(CN3CC=C(c4ccc(Cl)cc4)CC3)cnc2N2CCCCC12` (centres undefined), the melting point turned out to be 202 °C.
Molecule `ClCSc1c(Cl)c(Cl)cc(Cl)c1Cl` had a melting point of 81 to 82 °C.
For the molecule `O=C1[C@H]2CCC[C@H]2N(C(=O)CCl)c2ccccc2N1Cc1ccccc1` (relative stereo), the melting point is 154 to 156 °C.
The value for `Oc1ccc2cc(F)ccc2c1` was 118 to 120 °C; that for `O=c1[nH]sc2c1c(=O)c1cc(F)c(F)c(F)c1n2C1CC1` was 243 to 245 °C; that for `COc1ccc(S(=O)(=O)N2C(=O)C(O)(c3ccccc3OC)c3cc(Cl)c(C)cc32)c(OC)c1` (centres undefined) was 207 to 208 °C.
The molecule `CC(=O)N1c2ccccc2-c2c([N+](=O)[O-])cnn2C1(C)C` had a melting point of 182 to 183 °C.
Consider `CNC(=O)c1ncn2c(=O)n(CCCl)nnc12`, for which the melting point lay within 120 to 122 °C.
The molecule `O=c1[nH]c2cc(F)ccc2n(C(c2ccccc2)c2ccccc2)c1=O` gave a melting point of 144 °C.
The molecule `CCNC(=O)C1Cc2c(n(C)c3ccc(OC)cc23)C1` (centres undefined) registered a melting point of 162 to 163 °C.
The molecule `CC(=O)N1CCN(c2cccc(O)c2)CC1` returned a melting point of 186 °C.
In turn, `[N-]=[N+]=Nc1ccc(C=Cc2ccncc2)cc1` showed a melting point of 88.2 to 89.4 °C.
As to `CCOC(=O)c1ccccc1SC1C(=O)N(c2c(Cl)cc(Cl)cc2Cl)N=C1OC` (centres undefined), the melting point was 185 to 187 °C.
For the molecule `COC(=O)CCc1ccc(NC(=O)c2cc(C(C)C)c(C(C)C)o2)cc1`, the melting point was in the range of 93 to 94 °C.
The value for `COc1ccc(C(=O)N(C(=O)c2ccc(OC)cc2)c2nc3ccc(N4CCN(Cc5ccccc5)CC4)cc3c(NCc3ccccc3)c2C#N)cc1` was 157 °C; that for `C#CC[C@@H](N)c1nc2cccnc2c(=O)n1Nc1ccccc1` was 206 to 208 °C; that for `CC(C)(c1ccc(C(C)(C)c2ccc(O)cc2O)cc1)c1ccc(O)cc1O` was 110 to 115 °C.
In the case of `Nc1cccc(Cc2n[nH]c(=O)c3ccccc23)c1` it was 175 to 177 °C.
For the molecule `COc1ccc(COc2cccnc2NC(=N)Nc2ccccc2)cc1`, the melting point was in the range of 141 to 143 °C.
The value for `CN(C)C1(Cc2ccccc2)CCC(c2[nH]c3ccccc3c2CC2CCCCC2)CC1` (centres undefined) was 120 to 126 °C.
The molecule `Cc1ccccc1-c1c(NC(=O)Nc2ccc(F)cc2F)c(=O)oc2cc3c(cc12)CCC3` had a melting point of 223 to 224 °C.
Molecule `CC(=O)Oc1ccc(CCC2CC(C)(OC(C)=O)CC(=O)O2)cc1` (centres undefined) yielded a melting point of 72 to 75 °C.
Regarding `CC(C)CC(=O)Nc1ccc(-c2ccncc2)cc1`, the melting point was 166 to 176 °C.
On to `CC(C)(C)OC(=O)N1CCc2c(n(CCOc3ccccc3)c3c(Cl)ccc(Cl)c23)CC1`, for which the melting point is 132 to 133 °C.
The value for `COc1ccc2sc(-c3ccc(OCCN4CCCC4)cc3)cc2c1` was 123 to 126 °C.
`NC(=O)C(CCc1ccccn1)(c1ccccc1)c1ccccc1` displayed a melting point of 145 to 146 °C.
For the molecule `CCc1c(-c2ccccc2)oc2c(C(=O)NCCCN3CCN(c4ccccc4OC)CC3)cccc2c1=O`, the melting point lay within 133 to 136 °C.
The value for `CCSc1cc(C)nc(SCC)c1NC(=O)CCCCSc1nc2c(C)c(Cl)cc(C(C)C)c2o1` was 141 to 142 °C; that for `O=c1c2cc(F)c(N3CCCC3)nc2n(-c2ccc(F)cc2)c(=O)n1O` was 172 to 174 °C.
Turning to `Cc1ccccc1C(=O)Nc1ccc(C(=O)N2CCCC(OCC(=O)O)c3cc(Cl)ccc32)cn1` (centres undefined), the melting point was in the range of 220 to 222 °C.
`O=C(Nc1c([N+](=O)[O-])cnn1-c1c(Cl)cc(C(F)(F)F)cc1Cl)C1CCCO1` (centres undefined) returned a melting point of 169 to 172 °C.
With `Cc1cc(CO)c(C)cc1O`, the melting point fell in the range of 164 to 165 °C.
The molecule `O=C(c1cccnc1)C(Cc1ccc(F)cc1)c1ccccc1` (centres undefined) yielded a melting point of 100 to 102 °C.
`COc1cccc(C2=C(C#N)C(c3ccccc3[N+](=O)[O-])c3c[nH]nc3N2)c1` (centres undefined) gave a melting point of 220 °C.
The molecule `COc1cccc(N(C)c2nc(NC(=O)C(C)(C)C)nc3[nH]c4ccccc4c23)c1` came in with a melting point of 248 to 249 °C.
In the case of `COC(=O)NNc1cc(Cl)c(C)c2c1OC(C)C2` (centres undefined) it was 112 to 114 °C; in that of `O=C(O)CCCCCCCCc1ccco1`, 31 to 32 °C.
On to `O=Cc1ncn2c1[C@@H]1CCCN1C(=O)c1ccccc1-2`, for which the melting point lay within 206 to 208 °C.
In turn, `CN=C(Cl)c1ccc([N+](=O)[O-])cc1` had a melting point of 67 to 73 °C.
With `CCOc1c(OC)cc([N+](=O)[O-])c2ncccc12`, the melting point lay in the range of 88 to 95 °C.
Molecule `O=C1c2cc([N+](=O)[O-])ccc2SC12CC2` returned a melting point of 126 to 128 °C.
For the molecule `c1ccc2nn(-c3cscn3)cc2c1`, the melting point lay within 146 to 147 °C.
In turn, `CCN(CC)c1nc(-c2ccc(OC)c(OC)c2)nc2sc(C#N)c(C)c12` returned a melting point of 159 to 161 °C.
In the case of `CN(CCc1ccccn1)C(=O)CCSc1cc(C(C)(C)C)c(O)c(C(C)(C)C)c1`, the melting point lay within 82 to 84 °C.
Turning to `CCN(CC(=O)O)c1ccc(C=O)cc1[N+](=O)[O-]`, the melting point is 90 °C.
The value for `CCc1cc(COc2nn(Cc3ccccc3)cc2C=O)ccc1OCc1nc(-c2ccco2)oc1C` was 128 to 129 °C.
Regarding `CSc1ccc(Br)cc1C(=O)Cn1cccc1`, the melting point was 138 to 139 °C.
`O=C1c2ccccc2OC2CCCON12` (centres undefined) returned a melting point of 139 to 141 °C.
As to `COc1ccc2cc(C(=O)Oc3ccc(Cl)cn3)c(=O)oc2c1`, the melting point fell in the range of 248 to 250 °C.
In the case of `CC(=O)N(CCN1CCC(Nc2nc3ccccc3n2Cc2ccc(F)cc2)CC1)c1nccs1` it was 186 to 193 °C.
The molecule `CN(C)c1ncc(-c2cccc(N)c2)cn1` showed a melting point of 116 to 117 °C.
The molecule `COC(=O)c1sc(S)c(Cl)c1O` registered a melting point of 48 to 49 °C.
As for `C=C(C)c1ccc(O)c(-n2nc3ccccc3n2)c1`, the melting point was 124 °C.
With `Clc1ccc(C2(CBr)OCC(COc3ccc(Cl)c4ccccc34)O2)c(Cl)c1` (centres undefined), the melting point came to 123 °C.
For the molecule `CCN(CC)C(=O)c1nc(/C=C/c2ccc([N+](=O)[O-])o2)no1`, the melting point was 118 to 119 °C.
On to `CN1[C@H]2CC[C@@H]1[C@H](C=O)[C@@H](c1ccc(Cl)c(Cl)c1)C2`, for which the melting point lay within 131 to 135 °C.
Molecule `CCCOc1ccc(Nc2c([N+](=O)[O-])ccc(Cl)c2C(=O)O)cc1` showed a melting point of 194 to 196 °C.
